Source: patent US20030073812A1, “Non-endogenous, constitutively activated versions of plant G protein-coupled receptor: GCR1” (priority 2001, published 2003)

Assays:
[1] = system: wild-type GCR1 ("wt") BY-2 cells; experiment: Thymidine incorporation in synchronized BY-2 cells, wild-type GCR1; assay type: cell-based, tobacco (Nicotiana tabacum); settings: 3 μM and 10 μM ABA; BY-2 cells with wild-type GCR1; measured over time; FIG. 11A
Method: (§1) Agrobacterium tumefaciens were transformed with the pMON-GCR1 plasmid and used to produce transgenic BY-2 cell lines. BY-2 cells were transformed according to the method disclosed in An, G. Plan Physiol. 79, 568-570 (1985). The selected transgenic alli were grown in the dark on selective medium at the 24° C. and transferred to fresh medium every 4 week. Liquid cultures were obtained for the different transgenic lines and synchronization was achieved by a 24-h subculture in 5 mg/liter aphidicolin. See, Combettes, B. et al., Methods Cells Sci., 21, 109-121 (1991).
(§2) DNA synthesis is measured by incubating 1 ml samples of the synchronized cell suspension with 1 μCi of [^3H] thymidine for 20 minutes at 27° C. in Eppendorf microtubes with gentle shaking. Cells were collected by centrifugation for 5 minutes at 1,800× g, and the pellet was frozen in dry ice. DNA was extracted with Plant DNAzol Reagent (GIBCO/BRL), resuspended in water, and the [^3H] radioactivity was determined with a scintillation counter.
(§3) To determine the effect of the non-endogenous, constitutively activated version of GCR1, […], on the cell cycle, control cell (empty vector), wild-type GCR1 (“wt”) and R271P overexpressing BY-2 cells were synchronized with aphidicolin for 24 h, and, after removal of the cell cycle blocker, thymidine incorporation was measured. (See, FIG. 10). […]

[2] = system: non-endogenous, constitutively activated version of GCR1, R271P, BY-2 cells; experiment: Thymidine incorporation in synchronized BY-2 cells, constitutively activated GCR1 R271P; assay type: cell-based, tobacco (Nicotiana tabacum); settings: 3 μM and 10 μM ABA; BY-2 cells with R271P GCR1; measured over time; FIG. 11B
Method: as §1, §2, §3

CC1=CC(=O)CC(C)(C)C1(O)/C=C/C(C)=C\C(=O)O (centres unmarked) [ABA, Abscissic Acid]
thymidine incorporation (DNA synthesis) [1]: decreases thymidine incorporation
thymidine incorporation (DNA synthesis) [2]: not affected
